We go through 9 molecules from US20100215618A1, “NOVEL COMPOUNDS - 644” (Arrow Therapeutics Limited, priority 2009, published 2010).

In the test the test system is HCV replicon cells Huh 9B (genotype 1b). Description: 1b Replicon Assay (luciferase readout). The test is classed as cell-based. Conditions: Hepatitis C virus, Huh 9B replicon cells, 72 h, luciferase activity. The procedure:
HCV replicon cells Huh 9B (ReBlikon), containing the firefly luciferase-ubiquitin-neomycin phosphotransferase fusion protein and EMCV-IRES driven HCV polyprotein with cell culture adaptive mutations.
Cells were cultured at 37° C./5% CO2 and split twice a week. G418 at 0.5 mg/ml was added to the culture medium but not the assay medium.
The culture medium consisted of DMEM with […] glucose and Glutamax (Gibco 61965-026) supplemented with 1× non-essential amino acids (Invitrogen 11140-035), 0.5 mg/ml G418 (Invitrogen 10131-027) and 10% Australian foetal calf serum (Invitrogen 10099-141).
Replicon cells were trypsinised and counted. Cells were diluted to 100,000 cells/ml and 100 μl used to seed one opaque white 96-well plate (for the replicon assay) and one flat-bottomed clear plate (for the tox assay) for every five compounds to be tested for IC50. Wells G12 and H12 were left empty in the clear plate as the blank. Plates were then incubated at 37° C./5% CO2 for 24 h.
On the following day compound dilutions were prepared in medium at twice their desired final concentration in a clear round bottomed plate. All dilutions have a final DMSO concentration of 1%.
Controls and compounds were transferred from the dilution plates to the assay plates (containing the cells) at 100 μl/well in duplicate wells.
Exception: no compound was added to wells A1 and A2 of either plate and 100 μl of 1% DMSO was added to these instead. Plates were then incubated at 37° C./5% CO2 for 72 h.
At the end of the incubation time, the cells in the white plate were washed in PBS (100 μL per well) and dried by tapping before addition of 204 per well of lysis buffer (25 mM tris-phosphate, 8 mM MgCl2, 1 mM DTT, 1% Triton X-100, 15% glycerol; pH to 7.8 using KH2PO4 prior to Triton X-100 and glycerol addition). Aliquots of substrate (23.5 mM beetle luciferin (Promega E1603), 26 mM ATP (Sigma O-2060) in […] Tris buffer pH 7.8) were stored at −80° C. Prior to use, required amount of luciferin was thawed and diluted 1:50 in luciferase assay buffer (20 mM Tricine (Sigma T-0377), 1.07 mM magnesium carbonate hydroxide (Sigma M-5671), 0.1 mM EDTA (Sigma E-5134), 2.67 mM MgSO4(BDH 101514Y), 33.3 mM dithiothreitol (Sigma 150460) pH 7.8).
After 5-60 min incubation in lysis buffer at room temperature, a plate was inserted into the luminometer and 100 μl luciferase assay reagent was added by the injector of the luminometer. The signal was measured using a 1 second delay followed by a 4 second measurement programme. The IC50, the concentration of the drug required for reducing the replicon level by 50% in relation to the untreated cell control value, was calculated from the plot of the percentage reduction of the luciferase activity vs. drug concentration.

[1] abbreviates: read-out: pIC50 1b Replicon (converted).

Read-outs that look alike come from different tables or passages of the source.

For `COC(=O)N[C@H](C(=O)N1CCC[C@@H]1c1ncc(-c2ccc(-c3ccc(C(=O)Nc4ccc(CN5CCS(=O)(=O)CC5)cc4)cc3)cc2)[nH]1)c1ccccc1` [Example 23, Methyl N-[(1S)-2-[(2R)-2-[5-[4-[4-[[4-[(1,1-dioxo-1,4-thiazinan-4-yl)methyl]phenyl]carbamoyl]phenyl]phenyl]-1H-imidazol-2-yl]pyrrolidin-1-yl]-2-oxo-1-phenyl-ethyl]carbamate], the IC50 is 0.109 µM (read-out: HCV IC50 1b Replicon) and 0.11 µM under setting [1].

Take `COC(=O)N[C@@H](C(=O)N1CCC[C@@H]1c1ncc(-c2ccc(-c3ccc(C(=O)Nc4ccc(CN5CCS(=O)(=O)CC5)cc4)cc3)cc2)[nH]1)c1ccccc1` [Example 24, Methyl N-[(1R)-2-[(2R)-2-[5-[4-[4-[[4-[(1,1-dioxo-1,4-thiazinan-4-yl)methyl]phenyl]carbamoyl]phenyl]phenyl]-1H-imidazol-2-yl]pyrrolidin-1-yl]-2-oxo-1-phenyl-ethyl]carbamate]: the IC50 (read-out: HCV IC50 1b Replicon) is 0.101 µM and the IC50 under setting [1] is 0.102 µM.

Regarding `CCN(CC)[C@@H](C(=O)N1CCC[C@@H]1c1ncc(-c2ccc(-c3ccc(C(=O)Nc4ccc(CN5CCS(=O)(=O)CC5)cc4)cc3)cc2)[nH]1)c1ccccc1` [Example 25, 4-[4-[2-[(2R)-1-[(2R)-2-(diethylamino)-2-phenyl-acetyl]pyrrolidin-2-yl]-1H-imidazol-5-yl]phenyl]-N-[4-[(1,1-dioxo-1,4-thiazinan-4-yl)methyl]phenyl]benzamide], the IC50 is 0.0779 µM (read-out: HCV IC50 1b Replicon) and 0.0776 µM under setting [1].

Consider `CN(C)[C@@H](C(=O)N1CCC[C@@H]1c1ncc(-c2ccc(-c3ccc(C(=O)Nc4ccc(CN5CCS(=O)(=O)CC5)cc4)cc3)cc2)[nH]1)c1ccccc1` [Example 26, 4-[4-[2-[(2R)-1-[(2R)-2-(dimethylamino)-2-phenyl-acetyl]pyrrolidin-2-yl]-1H-imidazol-5-yl]phenyl]-N-[4-[(1,1-dioxo-1,4-thiazinan-4-yl)methyl]phenyl]benzamide], for which the IC50 is 0.0557 µM (read-out: HCV IC50 1b Replicon) and 0.0562 µM under setting [1].

Take `COC(=O)N[C@H](C(=O)N1CCC[C@H]1c1ncc(-c2cccc(-c3ccc(C(=O)Nc4ccc(CN5CCS(=O)(=O)CC5)cc4)cc3)c2)[nH]1)C(C)C` [Example 33, Methyl N-[(1S)-1-[(2S)-2-[5-[3-[4-[[4-[(1,1-dioxo-1,4-thiazinan-4-yl)methyl]phenyl]carbamoyl]phenyl]phenyl]-1H-imidazol-2-yl]pyrrolidine-1-carbonyl]-2-methyl-propyl]carbamate]: the IC50 is 0.159 µM (read-out: HCV IC50 1b Replicon) and 0.158 µM under setting [1].

Regarding `COC(=O)N[C@@H](C)C(=O)N1CCC[C@H]1c1ncc(-c2cccc(-c3ccc(C(=O)Nc4ccc(CN5CCS(=O)(=O)CC5)cc4)cc3)c2)[nH]1` [Example 34, Methyl N-[(1S)-2-[(2S)-2-[5-[3-[4-[[4-[(1,1-dioxo-1,4-thiazinan-4-yl)methyl]phenyl]carbamoyl]phenyl]phenyl]-1H-imidazol-2-yl]pyrrolidin-1-yl]-1-methyl-2-oxo-ethyl]carbamate], the IC50 runs as follows: (read-out: HCV IC50 1b Replicon) 0.252 µM; under setting [1], 0.251 µM.

With `COC(=O)N[C@H](C(=O)N1CCC[C@H]1c1ncc(-c2cccc(-c3ccc(C(=O)Nc4ccc(CN5CCS(=O)(=O)CC5)cc4)cc3)c2)[nH]1)C(C)(C)C` [Example 35, Methyl N-[(1S)-1-[(2S)-2-[5-[3-[4-[[4-[(1,1-dioxo-1,4-thiazinan-4-yl)methyl]phenyl]carbamoyl]phenyl]phenyl]-1H-imidazol-2-yl]pyrrolidine-1-carbonyl]-2,2-dimethyl-propyl]carbamate], the IC50 runs as follows: (read-out: HCV IC50 1b Replicon) 0.129 µM; under setting [1], 0.129 µM.

Consider `COC(=O)N[C@H](C(=O)N1CCC[C@H]1c1ncc(-c2cccc(-c3ccc(C(=O)Nc4ccc(CN5CCS(=O)(=O)CC5)cc4)cc3)c2)[nH]1)c1ccccc1` [Example 36, Methyl N-[(1S)-2-[(2S)-2-[5-[3-[4-[[4-[(1,1-dioxo-1,4-thiazinan-4-yl)methyl]phenyl]carbamoyl]phenyl]phenyl]-1H-imidazol-2-yl]pyrrolidin-1-yl]-2-oxo-1-phenyl-ethyl]carbamate], for which the IC50 was 0.0156 µM (read-out: HCV IC50 1b Replicon) and 0.0155 µM under setting [1].

Regarding `COC(=O)N[C@@H](C(=O)N1CCC[C@H]1c1ncc(-c2cccc(-c3ccc(C(=O)Nc4ccc(CN5CCS(=O)(=O)CC5)cc4)cc3)c2)[nH]1)c1ccccc1` [Example 37, Methyl N-[(1R)-2-[(2S)-2-[5-[3-[4-[[4-[(1,1-dioxo-1,4-thiazinan-4-yl)methyl]phenyl]carbamoyl]phenyl]phenyl]-1H-imidazol-2-yl]pyrrolidin-1-yl]-2-oxo-1-phenyl-ethyl]carbamate], the IC50 reads like this: (read-out: HCV IC50 1b Replicon) 0.0215 µM; under setting [1], 0.0214 µM.
